We go through two molecules from patent US20180172669A1, “SCREENING AND USE OF PIPERIDINO PYRAZOLOPYRIMIDINE COMPOUND” (Institute of Basic Medical Sciences, Chinese Academy of …, priority 2015, published 2018).

For one assay, the system named is phosphodiesterase. Description: Inhibitory effect on phosphodiesterase. The format is biochemical.
Assay [1] deals with Id1 promoter driven Venus-Luci dual reporter gene in ID1-V-LUC hES. In words: ID1-V-LUC hES luciferase assay with compound (Example 4). The format is cell-based, human. Particulars: 18-24 h. How it is done: ID1-V-LUC hES were seeded in a 96-well plate and were grown to 80% confluency. The old medium was removed and the cells were washed with PBS, then mTeSR medium of human embryonic stem cell (Biowish.Co.,Ltd.) was added. The cells were starved for 6 hours prior to incubating with the compound: 1H-Pyrazolo[3,4-d]pyrimidine, 1-phenyl-4-(1-piperidinyl)- (Cas No :23000-46-6). The compound was serially diluted to 5, 2.5, 1.25, 0.625, 0.3 μg/mL in above-mentioned medium, and sequentially added in the 96-well plate in which the stem cells of the model were seeded. Triplicate replicates were used for each concentration. At the same time, the well in which the medium containing 0.1% DMSO was added as blank control. After the incubation of 18-24 h at 37° C. (5% CO2), the cells were lysed with cell lysis buffer CCLR (Promega), and the luciferase activity were detected using the method according to the instruction of the detection system of reporter gene, Luciferase Assay System (Promega).
The activity of luciferase resulting from the stimulation of the compounds at different concentrations was calculated using the following formula:
Regulation rate=Luciferase activity of compound-treated cells/Luciferase activity of DMSO-treated cells×100%

In another assay the test system is endothelial cells. Description: Angiogenesis of endothelial cells on Matrigel. The assay is classed as cell-based. To be noted: 2-8 hours; for ability of angiogenesis compared with control: ECs on Matrigel. How it is done: The endothelial cells were grown in complete culture medium (1% FBS in SFM) to confluency. One day before the experiment of angiogenesis, the medium was replaced by 0.2% FBS SFM to starve the cells for 16 hours. One the day before the experiment, Matrigel (Corning, 10 mg/ml) was put on ice overnight for thawing, and on the day of experiment, Matrigel was added in the wells of the pre-chilled 96-well plate (50 μl per well) and was distributed evenly in the wells. Then the plate was put in the incubator and incubated at 37 □ for 30 mins. Afterwards, the medium for starvation was removed and the cells were washed twice with DPBS, then Accutase enzyme was added to digest the cells for 1 minute. Later on, the SFM medium for starvation was added to resuspend the cells, and the cells were gently pipetted to form single cell suspension and centrifuged in room temperature at 1000 rpm for 4 mins. The cells were resuspended in SFM medium for starvation and counted. Then, the cells were seeded in 1×10^4 cells per well, and were gently shook to distributed evenly before putting in the incubator at 37 □. The angiogenesis was observed within 2-8 hours.

In another assay the test system is MCT-PAH rats. In words: Monocrotaline induced PAH rat model (MCT-PAH). The assay is classed as in vivo, Sprague-Dawley rats. To be noted: 4.5 mg/kg intragastric gavage, three weeks after MCT. How it is done:
In vivo experiments with MCT-PAH rats: Monocrotaline (MCT, 55 mg/kg) or saline were administrated subcutaneously in single dose to male Sprague-Dawley rats (supplied by Nation Institutes for Food and Medicament Control). Three weeks after the injection of MCT, 4.5 mg/kg of piperidino pyrazolopyrimidine compound (A), saline or positive control (Sildenafil) were administrated respectively to the rats by intragastric gavage. Two weeks after the administration, the right ventricular systolic pressure (RVSP) was measured and the survival rate was calculated with the data of RVSP recorded in BL-420E system (FIG. 13).

The test system of assay [2] is Id1 promoter driven Venus-Luci dual reporter gene in ID1-V-LUC hES. Description: ID1-V-LUC hES differentiated cells stimulated with BMP4, luciferase activity. To be noted: after 4 hours of stimulation with 6.25 ng/mL of BMP4, differentiated cells. The assay is classed as cell-based, human. How it is done: Id1-Venus-Luc-MC1-DTA plasmid was linearized with AsiSI, and then the resulting plasmid was electroporated into human embryonic stem cells (H9) of P57 (a commercially available human embryonic stem cells which could be passage to expand). At 37° C., CO2 5%, the cells were cultured on the DR4 MEF-feeder-cells (APPLIEDSTEMCELL, Inc., U.S.) with the medium containing serum replacement, and the medium was replaced by fresh medium daily. BioRad electroporation machine (ZAP: 250 V, uF 500, TC 8.6) was used for electroporation, then 19 clones were screened out using puromycin, and the clones with green fluorescence were picked out (the cells containing MC1-DTA plasmid cannot survive). The consistency between fluorescent activity and expression of endogenous Id gene was measured (FIG. 8).
The luciferase activity increased over time (0, 1, 2 and 5 hours) after the stimulation with of BMP4. The effect of external stimulus on the expression of Id gene can be reflected maximally by expression level of luciferase. Therefore, clone 2 (named as ID1-V-LUC hES) was selected and was used to carry out the secondary screening for the compounds (FIG. 9). ID1-V-LUC hES was differentiated toward early mesoderm, also the vascular cell with smooth muscle cell markers (α SMA, Calponin) were obtained. […]

`c1ccc(-n2ncc3c(N4CCCCC4)ncnc32)cc1` [piperidino pyrazolopyrimidine compound, 1H-Pyrazolo[3,4-d]pyrimidine,1-phenyl-4-(1-piperidinyl)-]: the “inhibitory effect on phosphodiesterase” value in the assay on phosphodiesterase is on record as “weak inhibitory effect”. Further, in assay [1] (5, 2.5, 1.25, 0.625, 0.3 μg/mL), the “expression level of luciferase of the stem cells of the model” value is on record as “up-regulated”. In addition, in assay [1] (concentration of the compound 2.5 μg/mL, vs DMSO), the “peak expression level of luciferase (regulation rate)” value is reported as 3.31 fold. Moreover, the “ability of angiogenesis relative to VEGF treated ECs” value in the assay with endothelial cells (1 μM) and in the assay with endothelial cells (5 μM) was “comparable” in each case. Besides, the “ability of angiogenesis compared with control” value in the assay with endothelial cells (1 μM) and in the assay on endothelial cells (5 μM) was “significantly increased” each time. Moreover, in the assay on MCT-PAH rats (measured two weeks after the administration), the “pulmonary arterial pressure (right ventricular systolic pressure, RVSP) of MCT-PAH rats” value is reported as “decreased significantly”. In addition, the “survival rate of the rats with MCT-PAH” value in the assay on MCT-PAH rats (two weeks after the administration) was “increased obviously”.

B1: BMP4: BMP ligand (Peprotech) used to stimulate ID1-V-LUC hES cells (protein, UniProt P12644 293-408, looked up)
Bone morphogenetic protein 4: SPKHHSQRARKKNKNCRRHSLYVDFSDVGWNDWIVAPPGYQAFYCHGDCPFPLADHLNSTNHAIVQTLVNSVNSSIPKACCVPTELSAISMLYLDEYDKVVLKNYQEMVVEGCGCR
Take B1: the “regulation rate of ID1-V-LUC” value in assay [2] is 7.5 fold.
